The text below walks through data of US6596307B1, “Process for preparing pharmaceutical bulk material having uniform dissolution” (Eli Lilly and Company, priority 2001, dated 2003).

The structures appear in SMILES notation. Several values for one entry are separate records, joined by “and”; a condition that tells them apart may be missing. Equal values may be shown once.

Holding throughout (format): physicochemical
Data set [1] in a line: X-ray diffraction conversion rate test (monohydrate to dihydrate after addition of water). The conditions noted are these: added at 0.5% by weight to poorly dissolving lot, mixed dry; 1 ml water to 0.80 g sample. Here is the method:
Through X-ray diffraction studies of readily dissolving and incompletely dissolving lots of cefaclor, it was determined that all lots are initially in the same crystallographic state (monohydrate). Upon addition of water to readily dissolving lots, there is no change in the X-ray powder diffraction pattern over a five minute period. In contrast, when water is added to incompletely dissolving lot of cefaclor, substantial amounts of the dihydrate form are detected in less than five minutes. In an older lot of cefaclor, no dihydrate was detected for as long as two days, at which time the study was discontinued.
The Δ^2-isomer was added to a poorly dissolving lot of cefaclor at 0.5% concentration by weight. The sample was mixed in the dry state. After addition of 1 ml of water to a 0.80 g sample, the X-ray diffraction pattern was collected at different time intervals.
Kinetic studies were carried out using fraction 6 to gain a better understanding of how much would be required to achieve acceptable results in the model dissolution test.

Data set [2] can be described thus: Solubility in water of crystal forms.
A short description of data set [3]: Near Infrared Dihydrate Conversion Test (NIR onset time). The settings on record: for NIR Onset Time: cefaclor dihydrate dried in fluidized bed to different water contents (Table 2). An excerpt:
“NIR onset time” refers to the time between addition of water to a cefaclor sample and the observation of an absorption peak at about 5798 cm^−1 (1725 nm) as measured by Near-Infrared Reflectance Spectroscopy (NIRS). Depending upon the particular instrument used, the exact peak measurement may vary within the standard deviation established for that particular instrument.
The NIRS conversion test measures the time in minutes before the onset of the crystal form reversion for a sample of cefaclor bulk. […] To ensure that a lot will have an acceptable dissolution rate, one generally strives for a NIR onset time of >7 minutes, preferably >9 minutes and more preferably >10 minutes.
Approximately 1 to 2 grams of sample was spread in a thin layer on the bottom of an open aluminum weighing pan and placed in a constant humidity chamber, containing a saturated aqueous solution of K2HPO4, for at least two hours prior to analysis. Following equilibration in the humidity chamber, the sample was packed into a 2 mm×6 mm, stainless steel sample cup until full (approximately 35 mg), and 6 μL of water placed in the center of the sample. NIR data were collected using the NIR Systems model 5000 equipped with a fiber optic diffuse-reflectance probe, positioned over the sample cup. Immediately following addition of the water, NIR spectra were recorded from 1100 to 2500 nm approximately each 30 seconds. The time elapsed prior to the first appearance of the dihydrate peak at 1725 nm (5798 cm^−1) was reported as the NIR onset time.

Data set [4] can be described thus: USP 23 Standard Dissolution Test for Cefaclor Capsules. The settings on record: water 37° C., 30 minutes, then rehydrated; for Capsule dissolution rate, 1st stage, individual unit: % dissolved. On the set-up: Capsule dissolution rate, 1st stage (Avg. n = 6) / Capsule dissolution rate, 1st stage, individual unit / Capsule dissolution rate, 2nd stage, individual unit: unit: %. Here is the method:
Dissolution (711): The test conditions are USP Apparatus 2 at 50 rpm using 900 ml of purified water maintained at 37° C. for 30 minutes. Determine the amount of Cefaclor monohydrate dissolved from ultraviolet absorbances at the wavelength of maximum absorbances at about 264 nm of filtered portions of the solution under test, suitably diluted with water, in comparison with a Standard solution having a know concentration of USP Cefaclor RS in the same medium.
Dissolution testing is continued with additional units through three stages unless the results conform at either the 1st or 2nd stage according to the following acceptance
The quantity, Q, is the % of dissolved active ingredient in the specification. For Cefaclor, at Stage 1, each individual unit must be at least 85% dissolved in 30 minutes to pass the testing. If any of the 6 units tested is less than 85% dissolved, the product fails level S1 and you must go to S2. At Stage 2, the mean of the twelve units tested (first 6 from S1 and 6 from S2) must be at least 80% dissolved and no unit may be less than 65% dissolved. If these criteria are not met, the product fails the level S2 specification and you must go to S3. At Stage 3, the mean of the 24 units tested (6 from S1+6 from S2+12 from S3) must be at least 80% dissolved, no more than 2 units may be less than 65% dissolved, and none of the units may be less than 55% dissolved.

The nature of data set [5]: Model Dissolution Test (capsule filled with drug substance only). The conditions noted are these: no related substances added; failed the test. Here is the method:
Approximately 523 mg of bulk cefaclor is filled into an empty 500 mg cefaclor capsule (KG3062). The USP monograph dissolution test is then performed with filtered samples being withdrawn at 15, 30, and 45 minutes. The test conditions are USP Apparatus 2 at 50 rpm using 900 ml of purified water maintained at 37° C. Visual examination is done at the time of sample collection. Visual observations range from “the material is completely dissolved and/or dispersed within 5 minutes with no visible residue or agglomerates to a large intact mass remains at the end of 45 minutes that is hard to the touch.” An ultraviolet (UV) assay is conducted on the filtered aliquots to determine the percent dissolution.

Setting [6] is: lots dried with full desiccation dried air.
Setting [7] is: bulk dried to 3.0 to 6.5% water (control method).
Where [8] appears, read: lots dried with 40 grains dried air.

For `N[C@@H](C(=O)NC1C(=O)N2C(C(=O)O)C(Cl)=CS[C@H]12)c1ccccc1` (stereo partly drawn) [Δ^2-isomer], the “inhibitory effect on conversion to dihydrate” value in data set [1] is listed as “minor inhibitory effect”. With `N[C@@H](C(=O)N[C@@H]1C(=O)N2C(C(=O)O)=C(Cl)CS[C@H]12)c1ccccc1` [cefaclor dihydrate], the “solubility in water relative to the monohydrate form” value in data set [2] was “less readily soluble”. Take `N[C@@H](C(=O)N[C@@H]1C(=O)N2C(C(=O)O)=C(Cl)CS[C@H]12)c1ccccc1.O` [Sample 1-1]: in data set [3], the “NIR Onset Time” value came out at 3 min. For the molecule `N[C@@H](C(=O)N[C@@H]1C(=O)N2C(C(=O)O)=C(Cl)CS[C@H]12)c1ccccc1` [amorphous cefaclor, reference compound], the “effect of addition to a cefaclor bulk sample on dihydrate reversion time” value in data set [3] (indicator tests) was “decrease the reversion onset time”. With `N[C@@H](C(=O)N[C@@H]1C(=O)N2C(C(=O)O)=C(Cl)CS[C@H]12)c1ccccc1` [Sample 2-1b], in data set [4] (setting [6]), the “Capsule dissolution rate, 1st stage, individual unit” value was 91 and 85 and 88 and 96 and 95 and 92; the “Capsule dissolution rate, 1st stage (Avg. n = 6)” value turned out to be 90. Turning to `N[C@@H](C(=O)N[C@@H]1C(=O)N2C(C(=O)O)=C(Cl)CS[C@H]12)c1ccccc1` [Sample 2-1a], in data set [4] (setting [6]), the Capsule dissolution rate, 1st stage, individual unit is 102% (2×) and 100% and 94% and 101% (2×); the “Capsule dissolution rate, 1st stage (Avg. n = 6)” value was determined as 100. With `N[C@@H](C(=O)N[C@@H]1C(=O)N2C(C(=O)O)=C(Cl)CS[C@H]12)c1ccccc1` [Sample 2-1c], in data set [4] (setting [6]), the “Capsule dissolution rate, 1st stage, individual unit” value is 90 and 95 and 97 and 89 and 96 (2×); the “Capsule dissolution rate, 1st stage (Avg. n = 6)” value is on record as 94. `N[C@@H](C(=O)N[C@@H]1C(=O)N2C(C(=O)O)=C(Cl)CS[C@H]12)c1ccccc1.O` [Sample 1-2]: the “NIR Onset Time” value in data set [3] amounted to 11 min.

Take `N[C@@H](C(=O)N[C@@H]1C(=O)N2C(C(=O)O)=C(Cl)CS[C@H]12)c1ccccc1.O` [Sample 1-3]: the “NIR Onset Time” value in data set [3] was 2.5 min. On to `N[C@@H](C(=O)NC1C(=O)N2C(C(=O)O)=C(Cl)CS[C@H]12)c1ccccc1` (some centres unmarked) [Cefaclor Monohydrate (Control), reference compound], for which, in data set [3] (setting [7]), the “NIR onset time, upper control limit” value was “approximately 2.5 minutes” and the “average NIR onset time” value worked out at 1.2 min. On to `N[C@@H](C(=O)N[C@@H]1C(=O)N2C(C(=O)O)=C(Cl)CS[C@H]12)c1ccccc1`, for which the “dissolved in thirty minutes” value in data set [5] is 78%.

Take `N[C@@H](C(=O)N[C@@H]1C(=O)N2C(C(=O)O)=C(Cl)CS[C@H]12)c1ccccc1` [Sample 2-2a]: in data set [4] (setting [8]), the “Capsule dissolution rate, 1st stage, individual unit” value was 97 and 92 and 95 and 81 and 98 and 101; the “Capsule dissolution rate, 1st + 2nd stage (Avg. n = 12)” value was 96; the “Capsule dissolution rate, 1st stage (Avg. n = 6)” value is on record as 94; the “Capsule dissolution rate, 2nd stage (Avg. n = 6)” value is listed as 98. Further, the “Capsule dissolution rate, 2nd stage, individual unit” value in data set [4] (setting [8]) is 98 and 95 and 99 and 100 and 97 and 96.
